Reference: patent publication US7531529B2, “Imidazole derivatives” (Roche Palo Alto LLC, priority 2003, dated 2009)

target: T1, human mGlu5a receptor (Homo sapiens, UniProt P41594); test: [3H]MPEP competition binding on membranes of EBNA cells transfected with human mGlu5a receptor
T1 construct: expressed in transfected cells; host or cells: EBNA cells (transient transfection); cell membrane homogenates
Method: For binding experiments, cDNA encoding human mGlu5a receptor was transiently transfected into EBNA cells using a procedure described by Schlaeger and Christensen [Cytotechnology 15:1-13 (1998)]. Cell membrane homogenates were stored at −80° C. until the day of assay where upon they were thawed and resuspended and polytronised in 15 mM Tris-HCl, 120 mM NaCl, 100 mM KCl, 25 mM CaCl2, 25 mM MgCl2 binding buffer at pH 7.4 to a final assay concentration of 20 μg protein/ well.
Saturation isotherms were determined by addition of twelve [^3H]MPEP concentrations (0.04-100 nM) to these membranes (in a total volume of 200 μl) for 1 h at 4° C. Competition experiments were performed with a fixed concentration of [^3H]MPEP (2 nM) and IC50 values of test compounds evaluated using 11 concentrations (0.3-10,000 nM). Incubations were performed for 1 h at 4° C.
At the end of the incubation, membranes were filtered onto unifilter (96-well white microplate with bonded GF/C filter preincubated 1 h in 0.1% PEI in wash buffer, Packard BioScience, Meriden, Conn.) with a Filtermate 96 harvester (Packard BioScience) and washed 3 times with cold 50 mM Tris-HCl, pH 7.4 buffer. Nonspecific binding was measured in the presence of 10 μM MPEP. The radioactivity on the filter was counted (3 min) on a Packard Top-count microplate scintillation counter with quenching correction after addition of 45 μl of microscint 40 (Canberra Packard S.A., Zürich, Switzerland) and shaking for 20 min.
The Ki value is defined by the following formula: Ki=IC50/[1+L/Kd] in which the IC50 values are those concentrations of the compounds tested which cause 50% inhibition of the competing radioligand ([^3H]MPEP). L is the concentration of radioligand used in the binding experiment and the Kd value of the radioligand is empirically determined for each batch of membranes prepared.

T1 sequence (P41594 21-1180 isoform P41594-2 limits assumed): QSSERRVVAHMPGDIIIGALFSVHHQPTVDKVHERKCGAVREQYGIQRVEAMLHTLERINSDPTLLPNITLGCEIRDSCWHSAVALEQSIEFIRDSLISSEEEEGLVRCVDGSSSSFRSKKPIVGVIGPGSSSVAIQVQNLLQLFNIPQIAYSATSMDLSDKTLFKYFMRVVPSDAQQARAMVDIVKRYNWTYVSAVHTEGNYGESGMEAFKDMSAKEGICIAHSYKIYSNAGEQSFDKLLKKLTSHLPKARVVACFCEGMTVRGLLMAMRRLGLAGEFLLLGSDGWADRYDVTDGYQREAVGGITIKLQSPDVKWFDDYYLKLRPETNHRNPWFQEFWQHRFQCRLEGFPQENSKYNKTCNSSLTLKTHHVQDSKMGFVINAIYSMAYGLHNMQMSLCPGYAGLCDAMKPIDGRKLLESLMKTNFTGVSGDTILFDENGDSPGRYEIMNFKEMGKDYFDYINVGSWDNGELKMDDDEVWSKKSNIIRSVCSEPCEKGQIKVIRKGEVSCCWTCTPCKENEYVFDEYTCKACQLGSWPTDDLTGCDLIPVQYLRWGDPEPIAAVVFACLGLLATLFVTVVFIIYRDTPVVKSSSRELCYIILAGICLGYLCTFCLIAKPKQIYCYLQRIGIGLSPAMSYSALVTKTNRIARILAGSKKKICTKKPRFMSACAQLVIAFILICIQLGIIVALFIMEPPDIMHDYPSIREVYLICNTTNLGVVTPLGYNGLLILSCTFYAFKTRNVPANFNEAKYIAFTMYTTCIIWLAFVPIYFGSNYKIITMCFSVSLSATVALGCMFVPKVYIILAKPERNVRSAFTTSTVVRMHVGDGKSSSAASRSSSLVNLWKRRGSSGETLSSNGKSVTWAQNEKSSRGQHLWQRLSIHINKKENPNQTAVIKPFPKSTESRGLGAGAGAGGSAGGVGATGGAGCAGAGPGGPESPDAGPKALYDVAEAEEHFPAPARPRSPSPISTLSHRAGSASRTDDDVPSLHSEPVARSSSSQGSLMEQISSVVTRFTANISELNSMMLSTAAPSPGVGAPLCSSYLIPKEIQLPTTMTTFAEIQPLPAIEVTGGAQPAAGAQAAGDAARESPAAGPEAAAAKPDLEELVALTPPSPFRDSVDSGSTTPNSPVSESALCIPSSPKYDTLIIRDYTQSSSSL

Row | SMILES | Ki [nM]
1 | Cc1nc(C#Cc2ccnc(F)c2)cn1-c1ccc(F)cc1 [Example 2, 2-Fluoro-4-[1-(4-fluoro-phenyl)-2-methyl-1H-imidazol-4-ylethynyl]-pyridine] | 23
2 | Cc1nc(C#Cc2ccnc(Cl)c2)cn1-c1cccc(C(F)(F)F)n1 [Example 5, 2-[4-(2-Chloro-pyridin-4-ylethynyl)-2-methyl-imidazol-1-yl]-6-trifluoromethyl-pyridine] | 21
3 | Cc1nc(C#Cc2ccnc(Cl)c2)cn1-c1cncc(F)c1 [Example 6, 3-[4-(2-Chloro-pyridin-4-ylethynyl)-2-methyl-imidazol-1-yl]-5-fluoro-pyridine] | 63
4 | Cc1nc(C#Cc2ccnc(Cl)c2)cn1-c1ccc(Cl)c(Cl)c1 [Example 8, 2-Chloro-4-[1-(3,4-dichloro-phenyl)-2-methyl-1H-imidazol-4-ylethynyl]-pyridine] | 24
5 | Cc1nc(C#Cc2ccnc(C#N)c2)cn1-c1ccc(F)cc1 [Example 10, 4-[1-(4-Fluoro-phenyl)-2-methyl-1H-imidazol-4-ylethynyl]-pyridine-2-carbonitrile] | 44
6 | Cc1cc(-n2cc(C#Cc3ccnc(Cl)c3)nc2C)ccc1F [Example 18, 2-Chloro-4-[1-(4-fluoro-3-methyl-phenyl)-2-methyl-1H-imidazol-4-ylethynyl]-pyridine] | 25
7 | Cc1ccc(-n2cc(C#Cc3ccnc(Cl)c3)nc2C)cc1 [Example 20, 2-Chloro-4-[1-(4-methyl-phenyl)-2-methyl-1H-imidazol-4-ylethynyl]-pyridine] | 15
8 | COc1ccc(-n2cc(C#Cc3ccnc(Cl)c3)nc2C)cc1 [Example 22, 2-Chloro-4-[1-(4-methoxy-phenyl)-2-methyl-1H-imidazol-4-ylethynyl]-pyridine] | 26
9 | Cc1ccnc(-n2cc(C#Cc3ccnc(Cl)c3)nc2C)n1 [Example 25, 2-[4-(2-Chloro-pyridin-4-ylethynyl)-2-methyl-imidazol-1-yl]-4-methyl-pyrimidine] | 40
10 | COc1ccnc(-n2cc(C#Cc3ccnc(Cl)c3)nc2C)n1 [Example 26, 2-[4-(2-Chloro-pyridin-4-ylethynyl)-2-methyl-imidazol-1-yl]-4-methoxy-pyrimidine] | 12
11 | Cc1nc(C#Cc2ccnc(Cl)c2)cn1-c1ccnc(C(F)(F)F)n1 [Example 28, 4-[4-(2-Chloro-pyridin-4-ylethynyl)-2-methyl-imidazol-1-yl]-2-trifluoromethyl-pyrimidine] | 23
12 | Cc1ccc(-n2cc(C#Cc3ccnc(Cl)c3)nc2C)nc1 [Example 30, 2-[4-(2-Chloro-pyridin-4-ylethynyl)-2-methyl-imidazol-1-yl]-5-methyl-pyridine] | 36
13 | Cc1nc(C#Cc2ccnc(C#N)c2)cn1-c1ccc(Cl)nc1 [Example 31, 4-[1-(6-Chloro-pyridin-3-yl)-2-methyl-1H-imidazol-4-ylethynyl]-pyridine-2-carbonitrile] | 69
14 | Cc1nc(C#Cc2ccnc(Cl)c2)cn1-c1ccc(C2CC2)nc1 [Example 33, 5-[4-(2-Chloro-pyridin-4-ylethynyl)-2-methyl-imidazol-1-yl]-2-cyclopropyl-pyridine] | 24
